Measurements taken from US20220112204A1, “SUBSTITUTED DIHYDROPYRANOPYRIMIDINE COMPOUNDS AS KRAS INHIBITORS” (ACCUTAR BIOTECHNOLOGY INC., priority 2020, published 2022).

What was measured:
KRAS-G12C mutant [1] = target: T1, KRAS-G12C mutant (Homo sapiens, UniProt P01116, G12C); experiment: TR-FRET assay of SOS1-assisted KRAS GDP/GTP exchange; type: biochemical
Experimental: GDP form of 6*His tagged KRAS-G12C was diluted to 40 nM and incubated with 8 nM LanthaScreen™ Elite Terbium-anti-HIS Antibody (Thermo, catalog number PV5863) in reaction buffer containing 20 mM Tris, pH 7.5, 100 mM NaCl, 1 mM DTT, 0.1% Tween20, 0.05% BSA, 2% DMSO, 1 mM MgCl2. After 1 hour-incubation at 4° C., proteins were placed in 384 well plate (PerkinElmer, PROXIPLATE-384 PLUS). Then compounds with different concentrations were added to the proteins. BODIPY labeled GTP (Thermo, catalog number G12411) and SOS-1 (or reaction buffer as control) were then added to reactions at 200 nM and 1 μM to trigger the exchange of GDP to BODIPY-GTP. TR-FRET emission signals were determined at 520 nm and 620 nm on a Envision® Multilabel Plate Reader (PerkinElmer) using a 337 nm laser as light source. All data were analyzed and plotted using Graph Pad Prism software (version 8.0.1). Raw TR-FRET data were converted to percentage of inhibition (relative to DMSO) using the following equations: […]
b) For a given test compound concentration X:
Signal (X)=Emission ratio (SOS-1 & GTP)—Emission ratio (buffer & GTP)
c) Percentage of inhibition at concentration X=[1−Signal(X)/Signal (DMSO)]*100%
The […] values were determined by nonlinear regression of plots of [inhibitor] vs. percentage of inhibition with variable slope. Table 4 summarizes inhibition of SOS1-assisted GDP/GTP exchanging activity of KRAS-G12C mutant with exemplary compounds of the present disclosure.

[2] = tested on: phospho-ERK1/2 (Thr202/Tyr204) in MIA PaCa-2 cell line; experiment: pERK and ERK Western blot analysis, MIA PaCa-2; type: cell-based; conditions: Homo sapiens; MIA PaCa-2 cell line, 4 hours after incubation; read-out: 2D pERK IC50
Experimental: MIA PaCa-2 (ATCC), NCI-H358 (ATCC), NCI-H23 (ATCC), SW837 and A549 (ATCC) cells were plated in 24-well plates at 2×10^5cells/well in RPMI growth medium containing 10% FBS and 1× Penicillin Streptomycin. They were then incubated at 37° C. overnight. The following day, the test compound was administered to the cells by using 1000× compound stock solution prepared in DMSO at various concentrations. After administration of the compound, the cells were then incubated at 37° C. for 4 hours. Upon completion, the cells were washed with PBS and protein was collected in Laemmli sample buffer (1×; VWR International). Proteins in cell lysate were separated by SDS-PAGE and transferred to Odyssey nitrocellulose membranes (Licor) with iblot® dry blotting transfer system (ThermoFisher). Nonspecific binding was blocked by incubating membranes with Intercept Blocking Buffer (Licor) for 1 hour at room temperature with gentle shaking. The membranes were then incubated overnight at 4° C. with primary antibodies rabbit anti-phospho p44/42 MAPK (Erk1/2) (1:2,000, Cell Signaling, 4370) and mouse anti-p44/42 MAPK (Erk1/2) (1:1,000, Cell Signaling, 4696) diluted in Intercept Blocking Buffer containing 0.1% Tween 20. After washing 3 times with TBS-T, the membranes were incubated with IRDye® 800CW goat anti-rabbit IgG (1:20,000, Licor) or IRDye® 680CW goat anti-mouse IgG (1:20,000, Licor) for 1 hour. After TBS-T washes, membranes were rinsed in TBS and scanned on Odyssey® CLx Imaging System (Licor). The bands were quantified using Image Studio™ Software (Licor).

KRAS-G12C mutant [3] = target: T1, KRAS-G12C mutant; experiment: Gel shift assay (SDS-PAGE) for covalent modification of KRAS G12C; type: binding; conditions: 0.5 μM compound, 1 μM GDP-bound KRAS G12C, 25° C., 5 minutes, shift indicative of covalent cysteine conjugation
Experimental: 0.5 μM compounds were incubated with 1 μM GDP-bound untagged KRAS (G12C or wild type) proteins at 25° C. for 5 minutes in 40 μl reaction buffer (50 mM Tris, pH 7.5, 100 mM NaCl, 1 mM MgCl2, 1 mM DTT). The reactions were quenched with 10 μI SDS-PAGE sample loading buffer (250 mM Tris-HCl, pH 6.8, 10% SDS, 0.5% bromophenol blue, 50% glycerol and 50 mM DTT) and then analyzed via SDS-PAGE using 4%-20% gradient polyacrylamide gel followed by Coomassie blue stain.
FIG. 1 illustrates mobility change of KRAS-G12C mutant or wild type proteins on SDS-PAGE after 5 minutes of coincubation at 25° C. with exemplary compounds of the present disclosure, indicative of covalent cysteine conjugation.
Table 3 summarizes molecular weight shift of KRAS-G12C mutant on SDS-PAGE after 5 mins of coincubation at 25° C. with exemplary compounds of the present disclosure, indicative of covalent cysteine conjugation.

C=CC(=O)N1CCN(c2nc(OC[C@@H]3CCCN3C)nc3c2COC(c2cccc4cccc(Cl)c24)C3)C[C@@H]1CC#N (stereo partly drawn) [Compound 3, 2-((2S)-1-acryloyl-4-(7-(8-chloronaphthalen-1-yl)-2-(((S)-1-methylpyrrolidin-2-yl)methoxy)-7,8-dihydro-5H-pyrano[4,3-d]pyrimidin-4-yl)piperazin-2-yl)acetonitrile]
IC50 (KRAS-G12C mutant [1]): 29 nM
IC50 [2]: 1 to 10 nM

C=CC(=O)N1CCN(c2nc(OC[C@@H]3C[C@H](F)CN3C)nc3c2CO[C@@H](c2cccc4ccccc24)C3)C[C@@H]1CC#N [Compound 10, 2-((S)-1-acryloyl-4-((R)-2-(((2S,4S)-4-fluoro-1-methylpyrrolidin-2-yl)methoxy)-7-(naphthalen-1-yl)-7,8-dihydro-5H-pyrano[4,3-d]pyrimidin-4-yl)piperazin-2-yl)acetonitrile]
IC50 (KRAS-G12C mutant [1]): 13900 nM
IC50 [2]: > 100 nM

C=C(F)C(=O)N1CCN(c2nc(OCC34CCCN3CCC4)nc3c2COC(c2cccc4c2CCCC4)C3)C[C@@H]1CC#N (stereo partly drawn) [Compound 67, 2-((2S)-1-(2-fluoroacryloyl)-4-(2-((tetrahydro-1H-pyrrolizin-7a(5H)-yl)methoxy)-7-(5,6,7,8-tetrahydronaphthalen-1-yl)-7,8-dihydro-5H-pyrano[4,3-d]pyrimidin-4-yl)piperazin-2-yl)acetonitrile]
KRAS-G12C molecular weight shift (KRAS-G12C mutant [3]): Yes
IC50 (KRAS-G12C mutant [1]): 36 nM
IC50 [2]: 10 to 100 nM

C=C(F)C(=O)N1CCN(c2nc(OC[C@@H]3CCCN3C)nc3c2CO[C@@H](c2cccc4cccc(Cl)c24)C3)C[C@@H]1CC#N [Compound 19, 2-((S)-4-((R)-7-(8-chloronaphthalen-1-yl)-2-(((S)-1-methylpyrrolidin-2-yl)methoxy)-7,8-dihydro-5H-pyrano[4,3-d]pyrimidin-4-yl)-1-(2-fluoroacryloyl)piperazin-2-yl)acetonitrile]
KRAS-G12C molecular weight shift (KRAS-G12C mutant [3]): No
IC50 (KRAS-G12C mutant [1]): 80800 nM
IC50 [2]: > 100 nM

C=C(F)C(=O)N1CCN(c2nc(OCC34CCCN3CCC4)nc3c2CO[C@@H](c2cccc4cccc(Cl)c24)C3)C[C@@H]1CC#N (single isomer, unassigned) [Compound 54]
KRAS-G12C molecular weight shift (KRAS-G12C mutant [3]): No
IC50 (KRAS-G12C mutant [1]): 2350 nM
IC50 [2]: > 100 nM

C=CC(=O)N1CCN(c2nc(OC[C@@H]3CCCN3C)nc3c2CO[C@@H](c2cccc4cccc(Cl)c24)C3)C[C@@H]1CC#N [Compound 6, 2-((S)-1-acryloyl-4-((R)-7-(8-chloronaphthalen-1-yl)-2-(((S)-1-methylpyrrolidin-2-yl)methoxy)-7,8-dihydro-5H-pyrano[4,3-d]pyrimidin-4-yl)piperazin-2-yl)acetonitrile]
IC50 (KRAS-G12C mutant [1]): 7130 nM
IC50 [2]: > 100 nM

C=C(F)C(=O)N1CCN(c2nc(OCC34CCCN3CCC4)nc3c2[C@@H](C)O[C@@H](c2cccc4cccc(C)c24)C3)C[C@@H]1CC#N [Compound 65, 2-((S)-1-(2-fluoroacryloyl)-4-((5R,7R)-5-methyl-7-(8-methylnaphthalen-1-yl)-2-((tetrahydro-1H-pyrrolizin-7a(5H)-yl)methoxy)-7,8-dihydro-5H-pyrano[4,3-d]pyrimidin-4-yl)piperazin-2-yl)acetonitrile]
KRAS-G12C molecular weight shift (KRAS-G12C mutant [3]): No
IC50 (KRAS-G12C mutant [1]): 11600 nM
IC50 [2]: > 100 nM

C=C(F)C(=O)N1CCN(c2nc(OCC34CCCN3CCC4)nc3c2CO[C@@H](c2cccc4c2CCCC4)C3)C[C@@H]1CC#N [Compound 68, 2-((S)-1-(2-fluoroacryloyl)-4-((R)-2-((tetrahydro-1H-pyrrolizin-7a(5H)-yl)methoxy)-7-(5,6,7,8-tetrahydronaphthalen-1-yl)-7,8-dihydro-5H-pyrano[4,3-d]pyrimidin-4-yl)piperazin-2-yl)acetonitrile]
KRAS-G12C molecular weight shift (KRAS-G12C mutant [3]): No
IC50 (KRAS-G12C mutant [1]): 2540 nM
IC50 [2]: > 100 nM

C=C(F)C(=O)N1CCN(c2nc(OCC34CCCN3CCC4)nc3c2[C@@H](C)O[C@@H](c2cccc4c2CCCC4)C3)C[C@@H]1CC#N [Compound 60, 2-((S)-1-(2-fluoroacryloyl)-4-((5R,7R)-5-methyl-2-((tetrahydro-1H-pyrrolizin-7a(5H)-yl)methoxy)-7-(5,6,7,8-tetrahydronaphthalen-1-yl)-7,8-dihydro-5H-pyrano[4,3-d]pyrimidin-4-yl)piperazin-2-yl)acetonitrile]
KRAS-G12C molecular weight shift (KRAS-G12C mutant [3]): No
IC50 (KRAS-G12C mutant [1]): 4200 nM
IC50 [2]: > 100 nM

C=C(F)C(=O)N1CCN(c2nc(OCC3(CN(C)C)CC3)nc3c2COC(c2cccc4cccc(Cl)c24)C3)C[C@@H]1CC#N (stereo partly drawn) [Compound 70, 2-((2S)-4-(7-(8-chloronaphthalen-1-yl)-2-((1-((dimethylamino)methyl)cyclopropyl)methoxy)-7,8-dihydro-5H-pyrano[4,3-d]pyrimidin-4-yl)-1-(2-fluoroacryloyl)piperazin-2-yl)acetonitrile]
KRAS-G12C molecular weight shift (KRAS-G12C mutant [3]): Yes
IC50 (KRAS-G12C mutant [1]): 303 nM
IC50 [2]: 10 to 100 nM

C=C(F)C(=O)N1CCN(c2nc(OCC34CCCN3CCC4)nc3c2CO[C@@H](c2cccc4cccc(C)c24)C3)C[C@@H]1CC#N (single isomer, unassigned) [Compound 57]
KRAS-G12C molecular weight shift (KRAS-G12C mutant [3]): No
IC50 (KRAS-G12C mutant [1]): 4860 nM
IC50 [2]: > 100 nM

C=C(F)C(=O)N1CCN(c2nc(OC[C@@H]3CCCN3C)nc3c2COC(c2cccc4ccccc24)C3)C[C@@H]1CC#N (stereo partly drawn) [Compound 1, 2-((2S)-1-(2-fluoroacryloyl)-4-(2-(((S)-1-methylpyrrolidin-2-yl)methoxy)-7-(naphthalen-1-yl)-7,8-dihydro-5H-pyrano[4,3-d]pyrimidin-4-yl)piperazin-2-yl)acetonitrile]
IC50 (KRAS-G12C mutant [1]): 698 nM
IC50 [2]: > 100 nM

C=CC(=O)N1CCN(c2nc(OC[C@@H]3CCCN3C)nc3c2CO[C@@H](c2cccc4ccccc24)C3)C[C@@H]1CC#N [Compound 5, 2-((S)-1-acryloyl-4-((R)-2-(((S)-1-methylpyrrolidin-2-yl)methoxy)-7-(naphthalen-1-yl)-7,8-dihydro-5H-pyrano[4,3-d]pyrimidin-4-yl)piperazin-2-yl)acetonitrile]
IC50 (KRAS-G12C mutant [1]): 2150 nM
IC50 [2]: > 100 nM
